# Active and inactive are the calls of the source. No cut-off for these calls is given here.
# What was measured:
# [1] = Toxicity in ICR mouse assessed as effect on AST level at 12 umol/kg, ip measured after 12 hrs in presence of CDDO-Me; type: organism-based; conditions: in vivo, dose 12 µmol/kg
# HFL1 [2] = experiment: Synergistic antiproliferative activity against human HFL1 cells at 2.5 to 12.5 uM measured after 72 hrs in presence of CDDO-Me by MTT assay; type: toxicity, cell-based; conditions: hfl1, 72 h, dose 2.5-12.5 µM
# [3] = Toxicity in ICR mouse assessed as effect on ALT level at 12 umol/kg, ip measured after 12 hrs in presence of CDDO-Me; type: organism-based; conditions: in vivo, dose 12 µmol/kg
# A549 [4] = experiment: Antitumor activity at human A549 cells xenografted in BALB/c mouse assessed as reduction in tumor growth at 12 umol/kg, iv administered for 20 days and measured every 3 days for 21 days in presence of CDDO-Me; type: functional, organism-based; conditions: dose 12.0 µmol/kg, time 21.0 day
# L02 [5] = experiment: Synergistic antiproliferative activity against human L02 cells at 2.5 to 12.5 uM measured after 72 hrs in presence of CDDO-Me by MTT assay; type: toxicity, cell-based; conditions: l02, 72 h, dose 2.5-12.5 µM
# [6] = Stability of the compound in rat plasma assessed as prodrug release at 100 ug/ml measured for 8 to 12 hrs by HPLC analysis; type: ADME, cell-free; conditions: at 100 µg/mL, time 8-12 hrs
# A549 [7] = experiment: Induction of apoptosis in human A549 cells assessed as upregulation of cleaved-PARP level at 1 to 4 uM incubated for 72 hrs by Western blot analysis; type: functional, cell-based; conditions: dose 1-4 µM
# A549 [8] = experiment: Induction of necrosis in human A549 cells xenografted in BALB/c mouse at 12 umol/kg, iv administered for 20 days and measured every 3 days for 21 days by H and E staining based assay; type: functional, organism-based; conditions: dose 12.0 µmol/kg, time 21.0 day
# HepG2 [9] = experiment: Synergistic antiproliferative activity against human HepG2 cells at 2.5 to 12.5 uM measured after 72 hrs in presence of CDDO-Me by MTT assay; type: functional, cell-based; conditions: dose 2.5-12.5 µM
# L02 [10] = experiment: Synergistic antiproliferative activity against human L02 cells at 2.5 to 12.5 uM measured after 72 hrs in presence of SAHA by MTT assay; type: toxicity, cell-based; conditions: l02, 72 h, dose 2.5-12.5 µM
# [11] = molecular target: T1, Histone deacetylase (Homo sapiens) (UniProt Q13547+O15379+Q9UBN7+Q92769+Q9UQL6+Q8WUI4+Q9BY41+Q96DB2+P56524+Q9UKV0+Q969S8); experiment: Inhibition of HDAC in human A549 cells assessed as activation of Bax expression at 1 to 4 uM incubated for 72 hrs in presence of SAHA by Western blot analysis; type: cell-based; conditions: dose 1-4 µM
# A549 [12] = experiment: Induction of ROS accumulation in human A549 cells at 15 uM incubated for 2 hrs by DCFH2-DA staining based confocal microscopic analysis; type: functional, cell-based
# MCF7 [13] = experiment: Synergistic antiproliferative activity against human MCF7 cells at 2.5 to 12.5 uM measured after 72 hrs in presence of SAHA by MTT assay; type: functional, cell-based; conditions: dose 2.5-12.5 µM
# A549 [14] = experiment: Synergistic antiproliferative activity against human A549 cells at 2.5 to 12.5 uM measured after 72 hrs in presence of CDDO-Me by MTT assay; type: functional, cell-based; conditions: dose 2.5-12.5 µM
# A549 [15] = experiment: Antitumor activity at human A549 cells xenografted in BALB/c mouse assessed as reduction in tumor growth at 12 umol/kg, iv administered for 20 days and measured every 3 days for 21 days; type: functional, organism-based; conditions: dose 12.0 µmol/kg, time 21.0 day
# [16] = molecular target: T2, Protein deacetylase HDAC6 (Homo sapiens) (UniProt Q9UBN7); experiment: Inhibition of HDAC6 in human A549 cells assessed as reduction in HDAC expression at 1 to 4 uM incubated for 72 hrs by Western blot analysis; type: cell-based; conditions: dose 1-4 µM
# T2 sequence (whole entry): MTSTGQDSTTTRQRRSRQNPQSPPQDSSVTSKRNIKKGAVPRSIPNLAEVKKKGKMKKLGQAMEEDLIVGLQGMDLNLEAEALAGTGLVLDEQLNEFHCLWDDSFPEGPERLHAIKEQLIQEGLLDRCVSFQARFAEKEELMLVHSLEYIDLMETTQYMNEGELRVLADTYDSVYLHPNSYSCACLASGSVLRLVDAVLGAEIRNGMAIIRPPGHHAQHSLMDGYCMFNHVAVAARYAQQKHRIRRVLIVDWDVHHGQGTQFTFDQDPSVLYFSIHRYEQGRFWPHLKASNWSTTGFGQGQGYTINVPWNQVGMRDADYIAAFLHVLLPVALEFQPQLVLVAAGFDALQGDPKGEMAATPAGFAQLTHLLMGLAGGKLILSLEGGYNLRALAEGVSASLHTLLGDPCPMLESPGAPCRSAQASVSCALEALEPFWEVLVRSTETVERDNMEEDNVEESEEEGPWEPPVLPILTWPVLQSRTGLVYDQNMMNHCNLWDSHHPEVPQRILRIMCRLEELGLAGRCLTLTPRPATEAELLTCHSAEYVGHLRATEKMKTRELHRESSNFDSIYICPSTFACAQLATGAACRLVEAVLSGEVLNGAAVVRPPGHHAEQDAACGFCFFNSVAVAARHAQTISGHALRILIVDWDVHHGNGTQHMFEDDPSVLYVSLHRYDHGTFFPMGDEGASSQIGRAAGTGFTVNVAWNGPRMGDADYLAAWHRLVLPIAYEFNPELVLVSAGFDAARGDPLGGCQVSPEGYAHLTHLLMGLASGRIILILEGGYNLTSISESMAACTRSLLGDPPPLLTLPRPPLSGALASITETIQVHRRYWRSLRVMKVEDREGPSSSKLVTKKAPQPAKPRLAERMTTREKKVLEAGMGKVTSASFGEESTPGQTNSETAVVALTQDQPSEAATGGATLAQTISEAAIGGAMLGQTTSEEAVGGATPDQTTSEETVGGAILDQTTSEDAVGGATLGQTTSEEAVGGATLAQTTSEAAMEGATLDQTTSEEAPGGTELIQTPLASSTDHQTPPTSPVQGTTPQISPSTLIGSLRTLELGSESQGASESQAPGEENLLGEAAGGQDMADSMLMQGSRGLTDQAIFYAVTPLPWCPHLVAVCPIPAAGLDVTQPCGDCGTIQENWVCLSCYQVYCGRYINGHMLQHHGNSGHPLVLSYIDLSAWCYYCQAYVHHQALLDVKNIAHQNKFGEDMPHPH
# MCF7 [17] = experiment: Synergistic antiproliferative activity against human MCF7 cells at 2.5 to 12.5 uM measured after 72 hrs in presence of CDDO-Me by MTT assay; type: functional, cell-based; conditions: dose 2.5-12.5 µM
# [18] = Drug localization in mitochondria of human A549 cells measured after 4 hrs by Mito Tracker Green FM based confocal laser scanning microscopy analysis; type: ADME; conditions: a549, 4 h
# [19] = Toxicity in ICR mouse assessed as accumulation of lipid droplets in liver at 12 umol/kg, ip measured after 12 hrs by H and E staining based analysis; type: organism-based; conditions: in vivo, dose 12 µmol/kg
# A549 [20] = experiment: Induction of apoptosis in human A549 cells assessed as upregulation of Mcl-1 level at 1 to 4 uM incubated for 72 hrs by Western blot analysis; type: functional, cell-based; conditions: dose 1-4 µM
# A549 [21] = experiment: Induction of necrosis in human A549 cells xenografted in BALB/c mouse at 12 umol/kg, iv administered for 20 days and measured every 3 days for 21 days by TUNEL assay; type: functional, organism-based; conditions: dose 12.0 µmol/kg, time 21.0 day
# [22] = Toxicity in ICR mouse assessed as effect on ALT level at 12 umol/kg, ip measured after 12 hrs; type: organism-based; conditions: in vivo, dose 12 µmol/kg
# HT-29 [23] = experiment: Synergistic antiproliferative activity against human HT-29 cells at 2.5 to 12.5 uM measured after 72 hrs in presence of SAHA by MTT assay; type: functional, cell-based; conditions: dose 2.5-12.5 µM
# A549 [24] = experiment: Induction of DNA damage in human A549 cells assessed as increase in H2AX level incubated for 72 hrs by Western blot analysis; type: functional, cell-based; conditions: dose 1-4 µM, DDE = dose-dependent effect
# HT-29 [25] = experiment: Synergistic antiproliferative activity against human HT-29 cells at 2.5 to 12.5 uM measured after 72 hrs in presence of CDDO-Me by MTT assay; type: functional, cell-based; conditions: dose 2.5-12.5 µM
# [26] = molecular target: T1, Histone deacetylase (Homo sapiens); experiment: Inhibition of HDAC in human A549 cells assessed as activation of Bax expression at 1 to 4 uM incubated for 72 hrs in presence of CDDO-Me by Western blot analysis; type: cell-based; conditions: dose 1-4 µM
# A549 [27] = experiment: Induction of mitochondrial membrane depolarization in human A549 cells at 15 uM incubated for 2 hrs by JC-1 staining based analysis; type: functional, cell-based
# [28] = Stability of the compound in rat plasma assessed as prodrug release at 100 ug/ml measured for 8 hrs by HPLC analysis; type: ADME, cell-free; conditions: at 100 µg/mL
# [29] = Toxicity in ICR mouse assessed as effect on AST level at 12 umol/kg, ip measured after 12 hrs; type: organism-based; conditions: in vivo, dose 12 µmol/kg
# [30] = Drug distribution in BALB/c mouse xenografted with human A549 cells assessed as increase in fluorescence in tumor signal at 20 mg/kg, iv measured after 4 to 24 hrs post injection; type: ADME, organism-based; conditions: in vivo, time 4-24 hrs
# HepG2 [31] = experiment: Synergistic antiproliferative activity against human HepG2 cells at 2.5 to 12.5 uM measured after 72 hrs in presence of SAHA by MTT assay; type: functional, cell-based; conditions: dose 2.5-12.5 µM
# A549 [32] = experiment: Induction of apoptosis in human A549 cells assessed as upregulation of Bax level at 1 to 4 uM incubated for 72 hrs by Western blot analysis; type: functional, cell-based; conditions: dose 1-4 µM
# A549 [33] = experiment: Synergistic antiproliferative activity against human A549 cells at 2.5 to 12.5 uM measured after 72 hrs in presence of SAHA by MTT assay; type: functional, cell-based; conditions: dose 2.5-12.5 µM
# HFL1 [34] = experiment: Synergistic antiproliferative activity against human HFL1 cells at 2.5 to 12.5 uM measured after 72 hrs in presence of SAHA by MTT assay; type: toxicity, cell-based; conditions: hfl1, 72 h, dose 2.5-12.5 µM
# A549 [35] = experiment: Induction of apoptosis in human A549 cells xenografted in BALB/c mouse at 12 umol/kg, iv administered for 20 days and measured every 3 days for 21 days by H and E staining based assay; type: functional; conditions: dose 12 µmol/kg, time 21 day
# A549 [36] = experiment: Induction of apoptosis in human A549 cells xenografted in BALB/c mouse at 12 umol/kg, iv administered for 20 days and measured every 3 days for 21 days by TUNEL assay; type: functional, organism-based; conditions: dose 12.0 µmol/kg, time 21.0 day
# [37] = Toxicity in BALB/c mouse xenografted with human A549 cells assessed as change in body weight at 12 umol/kg, iv administered for 20 days and measured every 3 days for 21 days; type: organism-based; conditions: in vivo, 504 h, dose 12 µmol/kg, time 21 day
smiles,measurement,setting,value
O=C(CCCCCCC(=O)Nc1ccccc1)NO [VORINOSTAT],Activity,[1],Toxic
same,Activity,HFL1 [2],Non-Toxic
same,Activity,[3],Toxic
same,Activity,A549 [4],Active
same,Activity,L02 [5],Non-Toxic
COC(=O)[C@]12CCC(C)(C)C[C@H]1[C@H]1C(=O)C=C3[C@@]4(C)C(ONC(=O)CCCCCCC(=O)Nc5ccccc5)C(C#N)=C(OCc5ccc(OC(=O)C(C)SCCCSC(C)C(=O)Oc6ccc7c(c6)OC6=C(/C=C/C8=[N+](CCCc9cn(CCOCCOCCNC(=O)CCCC[C@H]%10SC[C@H]%11NC(=O)N[C@H]%11%10)nn9)c9ccc%10ccccc%10c9C8(C)C)CCCC6=C7)cc5)C(C)(C)[C@@H]4CC[C@@]3(C)[C@]1(C)CC2.[I-] (some centres undefined),Drug metabolism,[6],20%
same,Activity,A549 [7],Active
same,Activity,A549 [8],Active
same,Activity,HepG2 [9],Active
same,Activity,L02 [10],Non-Toxic
same,inhibition,[11],Active
same,Activity,A549 [12],Active
same,Activity,MCF7 [13],Active
same,Activity,A549 [14],Active
same,Activity,A549 [15],Active
same,inhibition,[16],Active
same,Activity,MCF7 [17],Active
same,Activity,HFL1 [2],Non-Toxic
same,Drug uptake,[18],Active
same,Activity,[19],Non-Toxic
same,Activity,A549 [20],Active
same,Activity,A549 [21],Active
same,Activity,[22],Non-Toxic
same,Activity,HT-29 [23],Active
same,Activity,A549 [24],Dde
same,Activity,HT-29 [25],Active
same,inhibition,[26],Active
same,Activity,A549 [27],Active
same,Drug metabolism,[28],< 10%
same,Activity,[29],Non-Toxic
same,Drug uptake,[30],Active
same,Activity,HepG2 [31],Active
same,Activity,A549 [32],Active
same,Activity,A549 [33],Active
same,Activity,HFL1 [34],Non-Toxic
same,Activity,A549 [35],53.3%
same,Activity,A549 [36],Active
same,Activity,[37],Non-Toxic
same,Activity,L02 [5],Non-Toxic
